Data published in patent US20190031618A1, “BENZIMIDAZOLE DERIVATIVES USEFUL AS CB-1 INVERSE AGONISTS” (Janssen Pharmaceutica NV, priority 2015, published 2019).

Assays:
[1] = biological target: Human CB2R (Cannabinoid receptor 2) (Homo sapiens, UniProt P34972); experiment: CB-2 in vitro cAMP (HTRF) assay; type: cell-based; conditions: HEK cells, cAMP HTRF, 250 nM forskolin; mean where tested more than once; read-out: CB2 HEK_cAMP EC50
Summary of the method: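 HEK-293 cells stably expressing receptor, plated overnight at 4E5 cells/mL, tested with 1/3 serial dilutions of compound in HBSS/HEPES/BSA buffer with 0.5 mM IBMX and forskolin (diluted to 1.5 μM in buffer). cAMP measured by competitive HTRF immunoassay (d2-cAMP, cryptate anti-cAMP), signal inversely proportional to cAMP.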

[2] = biological target: Human CB1R (Cannabinoid receptor 1) (Homo sapiens, UniProt P21554); experiment: CB-1 in vitro cAMP (HTRF) assay; type: cell-based; conditions: HEK cells, cAMP HTRF, 250 nM forskolin; mean where tested more than once; read-out: CB1 HEK_cAMP EC50
Human CB1R (Cannabinoid receptor 1), sequence (P21554 whole entry): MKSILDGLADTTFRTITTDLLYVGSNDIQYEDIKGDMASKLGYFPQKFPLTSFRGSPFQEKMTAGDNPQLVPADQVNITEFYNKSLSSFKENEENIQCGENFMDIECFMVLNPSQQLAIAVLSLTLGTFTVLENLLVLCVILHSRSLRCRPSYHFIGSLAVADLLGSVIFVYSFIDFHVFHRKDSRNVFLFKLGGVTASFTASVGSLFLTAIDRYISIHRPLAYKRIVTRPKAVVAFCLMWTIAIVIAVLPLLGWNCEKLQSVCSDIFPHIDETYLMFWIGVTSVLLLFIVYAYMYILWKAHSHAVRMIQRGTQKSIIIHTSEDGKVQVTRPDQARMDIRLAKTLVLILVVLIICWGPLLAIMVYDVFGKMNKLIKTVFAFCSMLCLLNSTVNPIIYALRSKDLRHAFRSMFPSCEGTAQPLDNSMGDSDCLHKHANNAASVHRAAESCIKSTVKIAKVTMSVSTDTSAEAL
Summary of the method: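 Intracellular cAMP from HTRF ratio (d2-cAMP vs Eu-cryptate anti-cAMP), converted to nM via per-plate standards, in stable human CB1R HEK-293 cells.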

Human CB2R (Cannabinoid receptor 2), sequence (P34972 whole entry): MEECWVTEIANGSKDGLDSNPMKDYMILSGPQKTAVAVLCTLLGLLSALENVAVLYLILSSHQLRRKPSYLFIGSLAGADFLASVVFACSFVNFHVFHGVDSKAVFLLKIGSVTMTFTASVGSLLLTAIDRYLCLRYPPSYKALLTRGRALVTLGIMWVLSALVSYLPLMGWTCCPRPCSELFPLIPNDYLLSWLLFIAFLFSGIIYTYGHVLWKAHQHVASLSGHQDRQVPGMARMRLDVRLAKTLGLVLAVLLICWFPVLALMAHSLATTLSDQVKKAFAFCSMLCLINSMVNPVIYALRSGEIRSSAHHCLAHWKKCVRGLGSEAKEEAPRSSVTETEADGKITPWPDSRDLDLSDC

SMILES	EC50 [1] [µM]	EC50 [2] [µM]
O=C(NCCO)c1ccc(S(=O)(=O)N2CCC(n3c(C4CC4)nc4ccc(C(c5ccc(Cl)cc5)c5ccc(Cl)cc5)cc43)CC2)cn1 [Example 204]	> 10	0.0944
Cc1cc(S(=O)(=O)N2CCC(n3c(C4CC4)nc4ccc(C(c5ccc(Cl)cc5)c5ccc(Cl)cc5)cc43)CC2)ccc1C(N)=O [Example 206]	> 10	0.101
COc1ccc(S(=O)(=O)N2CCC(n3c(C4CC4)nc4ccc(C(c5ccc(Cl)cc5)c5ccc(Cl)cc5)cc43)CC2)cc1C(=O)O [Example 211]	10.2	0.589
NC(=O)c1ccc(S(=O)(=O)N2CCC(n3c(C4CC4)nc4ccc(C(CO)(c5ccc(Cl)cc5)c5ccc(Cl)cc5)cc43)CC2)cc1Cl [Example 212]	> 10	3.74
O=C(O)c1ccc(S(=O)(=O)N2CCC(n3c(C4CC4)nc4ccc(C(CO)(c5ccc(Cl)cc5)c5ccc(Cl)cc5)cc43)CC2)cc1Cl [Example 213]	> 10	8.31
Cc1cc(C(N)=O)sc1S(=O)(=O)N1CCC(n2c(C3CC3)nc3ccc(C(c4ccc(Cl)cc4)c4ccc(Cl)cc4)cc32)CC1 [Example 215]	> 10	0.002
NC(=O)c1csc(S(=O)(=O)N2CCC(n3c(C4CC4)nc4ccc(C(c5ccc(Cl)cc5)c5ccc(Cl)cc5)cc43)CC2)c1 [Example 216]	> 10	0.0062
NC(=O)c1cc(S(=O)(=O)N2CCC(n3c(C4CC4)nc4ccc(C(c5ccc(Cl)cc5)c5ccc(Cl)cc5)cc43)CC2)ccc1F [Example 217]	> 10	0.0092
NC(=O)c1ccc(S(=O)(=O)N2CCC(n3c(C4CC4)nc4ccc(C(c5ccc(Cl)cc5)c5ccc(Cl)cc5)cc43)CC2)o1 [Example 224]	> 10	0.006
COc1ccc(S(=O)(=O)N2CCC(n3c(C4CC4)nc4ccc(C(c5ccc(Cl)cc5)c5ccc(Cl)cc5)cc43)CC2)cc1F [Example 225]	> 10	0.0415
NC(=O)c1ccc(S(=O)(=O)N2CCC(n3c(C4CC4)nc4ccc(C(CO)(c5ccc(Cl)cc5)c5ccc(Cl)cc5)cc43)CC2)cc1 [Example 227]	> 10	2.04
O=C(O)c1ccc(S(=O)(=O)N2CCC(n3c(C4CC4)nc4ccc(C(CO)(c5ccc(Cl)cc5)c5ccc(Cl)cc5)cc43)CC2)cc1 [Example 228]	> 10	8.3
O=C(O)c1ccc(C(=O)N2CCC(n3c(C4CC4)nc4ccc(C(c5ccc(Cl)cc5)c5ccc(Cl)cc5)cc43)CC2)cn1 [Example 231]	> 10	0.709
O=C(CCO)N1CCC(n2c(C3CC3)nc3ccc(C(c4ccc(Cl)cc4)c4ccc(Cl)cc4)cc32)CC1 [Example 234]	9.53	0.0161
NC(=O)c1ccc(S(=O)(=O)N2CCC(n3c(C4CC4)nc4ccc(C(c5ccc(Cl)cc5)c5ccc(Cl)cc5)cc43)CC2)cn1 [Example 238]	> 10	0.0019
CCc1nc2ccc(C(CO)(c3ccc(Cl)cc3)c3ccc(Cl)cc3)cc2n1C1CCN(S(=O)(=O)C(F)(F)F)CC1 [Example 244]	> 10	0.534
O=S(=O)(N1CCC(n2c(C3CC3)nc3ccc(C(CO)(c4ccc(Cl)cc4)c4ccc(Cl)cc4)cc32)CC1)C(F)(F)F [Example 245]	> 10	0.283
O=C(O)c1ccc(C(=O)N2CCC(n3c(C4CC4)nc4ccc(C(c5ccc(Cl)cc5)c5ccc(Cl)cc5)cc43)CC2)cc1 [Example 246]	> 10	1.43
NC(=O)CS(=O)(=O)N1CCC(n2c(C3CC3)nc3ccc(C(c4ccc(Cl)cc4)c4ccc(Cl)cc4)cc32)CC1 [Example 247]	> 10	0.129
O=C(O)CS(=O)(=O)N1CCC(n2c(C3CC3)nc3ccc(C(c4ccc(Cl)cc4)c4ccc(Cl)cc4)cc32)CC1 [Example 248]	> 10	4.24
O=S(=O)(N1CCC(n2c(C3COC3)nc3ccc(C(O)(c4ccc(Cl)cc4)c4ccc(Cl)cc4)cc32)CC1)C(F)(F)F [Example 255]	> 10	0.0073
O=C(O)COc1ccc(S(=O)(=O)N2CCC(n3c(C4CC4)nc4ccc(C(c5ccc(Cl)cc5)c5ccc(Cl)cc5)cc43)CC2)cc1 [Example 256]	> 10	0.129
O=S(=O)(c1ccc(O)cc1)N1CCC(n2c(C3CC3)nc3ccc(C(c4ccc(Cl)cc4)c4ccc(Cl)cc4)cc32)CC1 [Example 257]	> 10	0.0054
O=S(=O)(c1ccccc1O)N1CCC(n2c(C3CC3)nc3ccc(C(c4ccc(Cl)cc4)c4ccc(Cl)cc4)cc32)CC1 [Example 258]	> 10	0.0201
NC(=O)c1cccc(S(=O)(=O)N2CCC(n3c(C4CC4)nc4ccc(C(c5ccc(Cl)cc5)c5ccc(Cl)cc5)cc43)CC2)c1 [Example 260]	> 10	0.0015
COc1cccc(S(=O)(=O)N2CCC(n3c(C4CC4)nc4ccc(C(c5ccc(Cl)cc5)c5ccc(Cl)cc5)cc43)CC2)c1 [Example 261]	> 10	0.0219
NC(=O)c1ccc(S(=O)(=O)N2CCC(n3c(C4CC4)nc4ccc(C(c5ccc(Cl)cc5)c5ccc(Cl)cc5)cc43)CC2)cc1 [Example 262]	> 10	0.0155
CCc1nc2ccc(C(C(=O)O)(c3ccc(Cl)cc3)c3ccc(Cl)cc3)cc2n1C1CCN(S(=O)(=O)C(F)(F)F)CC1 [Example 266]	> 10	0.0184
O=C(O)C(c1ccc(Cl)cc1)(c1ccc(Cl)cc1)c1ccc2nc(C3CC3)n(C3CCN(S(=O)(=O)C(F)(F)F)CC3)c2c1 [Example 267]	> 10	0.007
O=C(O)CCC(=O)N1CCC(n2c(C3CC3)nc3ccc(C(c4ccc(Cl)cc4)c4ccc(Cl)cc4)cc32)CC1 [Example 269]	> 10	1.03

More lines, in order of falling EC50 [1], values ahead:

EC50 [1] [µM]	EC50 [2] [µM]	SMILES
9.4	0.0029	COc1cc(S(=O)(=O)N2CCC(n3c(C4CC4)nc4ccc(C(c5ccc(Cl)cc5)c5ccc(Cl)cc5)cc43)CC2)ccc1C(N)=O [Example 250]
7.9	0.459	O=C(O)c1ccccc1S(=O)(=O)N1CCC(n2c(C3CC3)nc3ccc(C(c4ccc(Cl)cc4)c4ccc(Cl)cc4)cc32)CC1 [Example 241]
7.82	0.0167	O=C(O)c1cc(S(=O)(=O)N2CCC(n3c(C4CC4)nc4ccc(C(c5ccc(Cl)cc5)c5ccc(Cl)cc5)cc43)CC2)ccc1F [Example 226]
6.24	0.0131	NC(=O)c1ccc(S(=O)(=O)N2CCC(n3c(C4CC4)nc4ccc(C(c5ccc(Cl)cc5)c5ccc(Cl)cc5)cc43)CC2)cc1Cl [Example 252]
5.9	0.0919	NS(=O)(=O)c1ccc(C(=O)N2CCC(n3c(C4CC4)nc4ccc(C(c5ccc(Cl)cc5)c5ccc(Cl)cc5)cc43)CC2)cc1 [Example 230]
5.84	1.37	O=S(=O)(c1ccc(O)c(F)c1)N1CCC(n2c(C3CC3)nc3ccc(C(c4ccc(Cl)cc4)c4ccc(Cl)cc4)cc32)CC1 [Example 220]
5.73	0.0367	O=C(NCCO)c1cccc(S(=O)(=O)N2CCC(n3c(C4CC4)nc4ccc(C(c5ccc(Cl)cc5)c5ccc(Cl)cc5)cc43)CC2)c1 [Example 205]
5.05	0.0225	O=C(O)c1cc(S(=O)(=O)N2CCC(n3c(C4CC4)nc4ccc(C(c5ccc(Cl)cc5)c5ccc(Cl)cc5)cc43)CC2)ccc1Cl [Example 214]
4.96	0.011	O=S(=O)(c1cc(Cl)c(O)c(Cl)c1)N1CCC(n2c(C3CC3)nc3ccc(C(c4ccc(Cl)cc4)c4ccc(Cl)cc4)cc32)CC1 [Example 222]
4.66	0.0064	Cc1cc(S(=O)(=O)N2CCC(n3c(C4CC4)nc4ccc(C(c5ccc(Cl)cc5)c5ccc(Cl)cc5)cc43)CC2)ccc1C(=O)O [Example 207]
3.34	0.0248	NC(=O)c1ccc(C(=O)N2CCC(n3c(C4CC4)nc4ccc(C(c5ccc(Cl)cc5)c5ccc(Cl)cc5)cc43)CC2)cn1 [Example 223]
2.42	0.0047	O=C(O)c1ccc(S(=O)(=O)N2CCC(n3c(C4CC4)nc4ccc(C(c5ccc(Cl)cc5)c5ccc(Cl)cc5)cc43)CC2)cc1Cl [Example 253]
2.1	0.0149	O=C(CO)N1CCC(n2c(C3CC3)nc3ccc(C(c4ccc(Cl)cc4)c4ccc(Cl)cc4)cc32)CC1 [Example 240]
1.78	0.0137	NS(=O)(=O)c1cccc(C(=O)N2CCC(n3c(C4CC4)nc4ccc(C(c5ccc(Cl)cc5)c5ccc(Cl)cc5)cc43)CC2)c1 [Example 229]
1.71	0.005	NC(=O)COc1ccc(S(=O)(=O)N2CCC(n3c(C4CC4)nc4ccc(C(c5ccc(Cl)cc5)c5ccc(Cl)cc5)cc43)CC2)cc1 [Example 249]
1.44	0.0072	Cc1cc(C(=O)O)sc1S(=O)(=O)N1CCC(n2c(C3CC3)nc3ccc(C(c4ccc(Cl)cc4)c4ccc(Cl)cc4)cc32)CC1 [Example 218]
1.25	0.0366	NC(=O)c1ccc(C(=O)N2CCC(n3c(C4CC4)nc4ccc(C(c5ccc(Cl)cc5)c5ccc(Cl)cc5)cc43)CC2)cc1 [Example 254]
0.73	0.0058	COc1cc(S(=O)(=O)N2CCC(n3c(C4CC4)nc4ccc(C(c5ccc(Cl)cc5)c5ccc(Cl)cc5)cc43)CC2)ccc1C(=O)O [Example 251]
0.347	0.0359	NC(=O)c1ccccc1S(=O)(=O)N1CCC(n2c(C3CC3)nc3ccc(C(c4ccc(Cl)cc4)c4ccc(Cl)cc4)cc32)CC1 [Example 243]
